Laboratory results reported in US7884124B2, “Fluoro-substituted inhibitors of D-amino acid oxidase” (Sepracor Inc., priority 2006, dated 2011).
Where two headings read alike, the source gives them in different places.

What was measured:
Human DAAO = Human DAAO (Homo sapiens, UniProt P14920); assay: D-Amino Acid Oxidase Enzyme Assay (D-serine substrate, horseradish peroxidase/Amplex Red coupled fluorescence); type: biochemical
Description: This coupled reaction uses the enzyme substrate Amplex Red (Molecular Probes), which is converted to the fluorescent reaction product, resorufin (excitation 530-560 nm; emission ˜590 nm). All reagents were prepared in 50 mM sodium phosphate buffer at pH 7.4 and inhibition curves were generated at this pH.
The final concentrations of components in 200 μl total volume per well (black clear-bottom 96-well plate, Costar) were:
(a) Horseradish peroxidase: 4 Units per ml
(d) Amplex Red reagent: 50 uM
The reactions were initiated by addition of DAAO enzyme while the fluorescence was monitored. […] Inhibition curves were generated in the presence of varying concentrations of the inhibitor and IC50 values were calculated for each inhibitor.

[1] = system: D-Serine Levels in the cerebellum; assay: In vivo elevation of D-serine levels in the cerebellum (LC/MS/MS); conditions: Mus musculus, ip, mice, read-out: Fold increase in D-serine in the cerebellum over vehicle; for response vs control in vivo at 50 mg/kg: 50 mg/kg i.p.; for response vs control in vivo at 10 mg/kg: 10 mg/kg i.p.
Description: In another example, the compounds activity is determined by measuring D-serine levels in vivo. Elevation of the D-serine level in a certain brain area (e.g., the cerebellum) of a test animal (e.g., mouse, rat, pig and the like) is indicative of DAAO inhibition in vivo. An exemplary assay format, which measures D-serine levels (LC/MS/MS) in the cerebellum of mice two hours and six hours after intraperitoneal (i.p.) dosing, is described herein (e.g., Example 9). Increases in D-serine levels were determined through comparison with vehicle. Useful variations of this assay will be apparent to those of skill in the art. Compounds of the invention are judged to be sufficiently active in this assay when at least one, preferably at least two, more preferably at least three and most preferably all four of the following criteria are met:
Mice (C57BL/6, 8-9 weeks of age) were dosed intraperitoneally at 10 mL/kg with 50 mg/kg or 10 mg/kg of compound suspended in 45% (w/v) hydroxy-β-cyclodextrin vehicle. Animals were sacrificed at either 2 or 6 hours post compound administration with an N=3 per time point. At sacrifice, trunk blood was collected into tubes containing potassium EDTA, which were then centrifuged to permit isolation of plasma. The cerebellum from each animal was dissected. Plasma and cerebellum samples were stored at −80° C. until samples were analyzed (LC/MS/MS).

[2] = D-serine 5 mM, pH 7.4, read-out: Human DAAO Inhibition (IC50)

Chain of Human DAAO (P14920 whole entry): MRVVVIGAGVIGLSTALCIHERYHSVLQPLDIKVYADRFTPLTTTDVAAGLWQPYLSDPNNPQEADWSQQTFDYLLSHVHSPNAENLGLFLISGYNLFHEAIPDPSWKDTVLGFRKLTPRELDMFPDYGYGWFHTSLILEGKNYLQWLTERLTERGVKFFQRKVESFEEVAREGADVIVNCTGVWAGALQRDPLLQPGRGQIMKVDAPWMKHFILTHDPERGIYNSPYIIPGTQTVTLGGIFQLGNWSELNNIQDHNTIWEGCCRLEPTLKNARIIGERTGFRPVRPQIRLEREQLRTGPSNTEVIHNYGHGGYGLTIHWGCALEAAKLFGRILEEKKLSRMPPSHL

| IC50 (Human DAAO; [2]) | inhibition at 100 µM (Human DAAO) | SMILES | response vs control in vivo at 50 mg/kg ([1]; 2 h) | response vs control in vivo at 50 mg/kg ([1]; 6 h) | response vs control in vivo at 10 mg/kg ([1]; 2 h) | response vs control in vivo at 10 mg/kg ([1]; 6 h) | IC50 (Human DAAO) |
| --- | --- | --- | --- | --- | --- | --- | --- |
| < 100000 nM | – | O=C(O)c1cc2sc(Cl)cc2[nH]1 [Compound 4, 2-chloro-4H-thieno[3,2-b]pyrrole-5-carboxylic acid] | < 150% | < 150% | – | – | – |
| < 1000 nM | – | O=C(O)c1cc2sc(Br)cc2[nH]1 [Compound 5, 2-bromo-4H-thieno[3,2-b]pyrrole-5-carboxylic acid] | 150 to 200% | < 150% | < 150% | < 150% | – |
| < 100000 nM | – | O=C(O)c1cc2sc(Br)c(Br)c2[nH]1 [Compound 6, 2,3-dibromo-4H-thieno[3,2-b]pyrrole-5-carboxylic acid] | – | – | – | – | – |
| < 1000 nM | – | O=C(O)c1cc2c(Br)csc2[nH]1 [Compound 8, 3-bromo-6H-thieno[2,3-b]pyrrole-5-carboxylic acid] | 150 to 200% | 150 to 200% | < 150% | < 150% | – |
| < 100000 nM | – | O=C(O)c1cc2oc(Cl)cc2[nH]1 [Compound 23, 2-chloro-4H-furo[3,2-b]pyrrole-5-carboxylic acid] | – | – | – | – | – |
| < 100 nM | – | O=C(O)c1cc2occ(Br)c2[nH]1 [Compound 30, 3-bromo-4H-furo[3,2-b]pyrrole-5-carboxylic acid] | 150 to 200% | < 150% | < 150% | < 150% | – |
| < 100 nM | – | O=C(O)c1cc2scc(Br)c2[nH]1 [Compound 49, 3-bromo-4H-thieno[3,2-b]pyrrole-5-carboxylic acid] | < 150% | < 150% | – | – | – |
| < 25 nM | – | O=C(O)c1[nH]c2ccsc2c1F [Compound 54, 6-fluoro-4H-thieno[3,2-b]pyrrole-5-carboxylic acid] | – | – | > 200% | > 200% | – |
| < 25 nM | – | O=C(O)c1cc2sc(F)cc2[nH]1 [Compound 55, 2-fluoro-4H-thieno[3,2-b]pyrrole-5-carboxylic acid] | > 200% | 150 to 200% | < 150% | < 150% | – |
| < 25 nM | – | O=C(O)c1cc2scc(F)c2[nH]1 [Compound 56, 3-fluoro-4H-thieno[3,2-b]pyrrole-5-carboxylic acid] | – | – | 150 to 200% | < 150% | – |
| < 1000 nM | – | O=C(O)c1[nH]c2sccc2c1Br [Compound 64, 4-bromo-6H-thieno[2,3-b]pyrrole-5-carboxylic acid] | < 150% | < 150% | < 150% | < 150% | – |
| < 100000 nM | – | O=C(O)c1cc2cc(Br)sc2[nH]1 [Compound 65, 2-bromo-6H-thieno[2,3-b]pyrrole-5-carboxylic acid] | – | – | – | – | – |
| < 25 nM | – | O=C(O)c1cc2cc(F)sc2[nH]1 [Compound 66, 2-fluoro-6H-thieno[2,3-b]pyrrole-5-carboxylic acid] | > 200% | 150 to 200% | 150 to 200% | < 150% | – |
| < 25 nM | – | O=C(O)c1cc2scc(Cl)c2[nH]1 [Compound 67, 3-chloro-4H-thieno[3,2-b]pyrrole-5-carboxylic acid] | < 150% | < 150% | < 150% | < 150% | – |
| < 25 nM | – | O=C(O)c1cc2c(F)csc2[nH]1 [Compound 68, 3-fluoro-6H-thieno[2,3-b]pyrrole-5-carboxylic acid] | 150 to 200% | 150 to 200% | < 150% | < 150% | – |
| < 100 nM | – | O=C(O)c1[nH]c2sccc2c1Cl [Compound 69, 4-chloro-6H-thieno[2,3-b]pyrrole-5-carboxylic acid] | – | – | – | – | – |
| < 100 nM | – | O=C(O)c1[nH]c2ccsc2c1Cl [Compound 70, 6-chloro-4H-thieno[3,2-b]pyrrole-5-carboxylic acid] | – | – | < 150% | < 150% | – |
| < 1000 nM | – | O=C(O)c1[nH]c2ccsc2c1Br [Compound 71, 6-bromo-4H-thieno[3,2-b]pyrrole-5-carboxylic acid] | – | – | < 150% | < 150% | – |
| < 1000 nM | – | O=C(O)c1[nH]c2ccoc2c1Br [Compound 72, 6-bromo-4H-furo[3,2-b]pyrrole-5-carboxylic acid] | < 150% | < 150% | < 150% | < 150% | – |
| < 100000 nM | – | O=C(O)c1cc2oc(Br)cc2[nH]1 [Compound 73, 2-bromo-4H-furo[3,2-b]pyrrole-5-carboxylic acid] | – | – | – | – | – |
| < 25 nM | – | O=C(O)c1cc2occ(F)c2[nH]1 [Compound 74, 3-fluoro-4H-furo[3,2-b]pyrrole-5-carboxylic acid] | > 200% | > 200% | > 200% | 150 to 200% | – |
| < 25 nM | – | O=C(O)c1[nH]c2ccoc2c1F [Compound 75, 6-fluoro-4H-furo[3,2-b]pyrrole-5-carboxylic acid] | > 200% | > 200% | > 200% | 150 to 200% | – |
| – | – | O=C(O)c1cc2occ(Cl)c2[nH]1 [Compound 76, 3-chloro-4H-furo[3,2-b]pyrrole-5-carboxylic acid] | – | – | < 150% | < 150% | < 100 nM |
| < 25 nM | – | O=C(O)c1cc2oc(F)cc2[nH]1 [Compound 78, 2-fluoro-4H-furo[3,2-b]pyrrole-5-carboxylic acid] | – | – | – | – | – |
| < 100 nM | – | O=C(O)c1[nH]c2ccoc2c1Cl [Compound 79, 6-chloro-4H-furo[3,2-b]pyrrole-5-carboxylic acid] | – | – | – | – | – |
| < 100000 nM | – | O=C(O)c1cc2cc(Cl)sc2[nH]1 [Compound 80, 2-chloro-6H-thieno[2,3-b]pyrrole-5-carboxylic acid] | – | – | – | – | – |
| < 100 nM | – | O=C(O)c1cc2c(Cl)csc2[nH]1 [Compound 81, 3-chloro-6H-thieno[2,3-b]pyrrole-5-carboxylic acid] | – | – | – | – | – |
| < 100 nM | – | O=C(O)c1[nH]c2sccc2c1F [Compound 82, 4-fluoro-6H-thieno[2,3-b]pyrrole-5-carboxylic acid] | – | – | – | – | – |
| – | 33% | O=C(O)c1[nH]c2sc(Br)cc2c1Br [Compound 84, 2,4-dibromo-6H-thieno[2,3-b]pyrrole-5-carboxylic acid] | – | – | – | – | – |
